According to patent US20080287425A1, “Method for Controlling Chinch Bugs” (FMC CORPORATION, priority 2005, published 2008):

System: adult southern chinch bugs
Experiment: LC-50 of bifenthrin on chinch bug populations, dipped St. Augustine grass stolons in Petri dishes
Type: in vivo, Blissus insularis
Conditions: about 24 hours at about 28° C
From the text: Developing Chinch Bug Resistance to Bifenthrin (Synthetic Pyrethroid) Serial dilutions of bifenthrin were made from Talstar Flowable 7.9% AI (FMC, Philadelphia, Pa.). Freshly harvested St. Augustine grass stolons (about 10 cm long) were dipped into the dilutions and allowed to air dry. The stolons were placed individually into Petri dishes (15 cm diameter) containing moist filter paper to maintain high humidity. Twenty adult southern chinch bugs were placed into each Petri dish and held for about 24 hours at about 28° C. Sample sizes of adults tested ranged from 200 (20 each at 10 dose levels) to 480 (20 each at 24 dose levels) for each location to estimate LC-50 for that location. Different numbers of adults tested per location depended on availability of adults plus variability noted in testing. Since the objective of this study was to estimate LC-50 values, doses expected to give 25 to 75% mortality for best LC-50 were used. Mortality was defined as virtually no movement by an adult during a 5 minute observation period through a 5× large magnifying lens. The no movement criterion was used to avoid ambiguities of comatose, unable to stand, moribund, etc.

With `Cc1c(COC(=O)[C@@H]2[C@H](/C=C(\Cl)C(F)(F)F)C2(C)C)cccc1-c1ccccc1` (racemic) [bifenthrin] the LC-50 (chinch bugs from Belle Glade, control problem in the field: No) was 2.6 ppm, the LC-50 (chinch bugs from Clermont, control problem in the field: Yes) was 78.7 ppm and the LC-50 (chinch bugs from Daytona Beach, control problem in the field: Yes) was 243.3 ppm. The LC-50 (chinch bugs from Fort Pierce, control problem in the field: No) was 2.8 ppm, the LC-50 (chinch bugs from Gainesville, control problem in the field: No) was 10.6 ppm and the LC-50 (chinch bugs from Kendall Lakes, control problem in the field: No) was 9.3 ppm. The LC-50 (chinch bugs from Key Largo, control problem in the field: Yes) was 148.2 ppm, the LC-50 (chinch bugs from Lithia, control problem in the field: No) was 5.4 ppm and the LC-50 (chinch bugs from Orlando, control problem in the field: No) was 2.3 ppm. For the same molecule, the LC-50 (chinch bugs from Ormond Beach, control problem in the field: Yes) was 698.8 ppm, the LC-50 (chinch bugs from Palm Coast, control problem in the field: Yes) was 1,693 ppm and the LC-50 (chinch bugs from Palmetto, control problem in the field: Yes) was 493.6 ppm. The LC-50 (chinch bugs from Royal Palm Beach, control problem in the field: No) was 7.3 ppm, the LC-50 (chinch bugs from Sarasota, control problem in the field: Yes) was 89.2 ppm and the LC-50 (chinch bugs from Spring Hill, control problem in the field: Yes) was 159.3 ppm. It also gave an LC-50 (chinch bugs from Tamarac, control problem in the field: No) of 9.7 ppm.
